Laboratory results: patent publication US10449230B2, “Polymyxin derived cell penetrating scaffolds” (The Regents of the University of California, priority 2016, dated 2019)
Numbered stars: 1 amine (or outer) side, 2 acyl side, 3 side chain; on linkers, the order of the positions; unused ones are H or OH. Bridge positions count the residues as written; N and C are the ends. Square brackets hold non-standard residues; d marks the D form. Peptide text beside a SMILES is read from it. * marks the point of attachment. Biotin = O=C1N[C@H]2[C@H](CS[C@H]2CCCCC(=O)*)N1; X1 = O=C(CCCc1cn(CCOCCOCCOCCN[*:1])nn1)[*:2]; Agb = N=C(N)NCC[C@H](N)C(=O)O; Dab = NCC[C@H](N)C(=O)O

What was measured:
[1] = test system: CHO-K1 cells; details: CHO-K1, 72 h, concentrations as high as 0.5 μM, FIG. 3A
Procedure: (§1) Cell titer blue was added and incubated an additional 4 hours. Cell viability was calculated by measuring the fluorescence intensity at 560/590.

[2] = test system: HEK-293 cells; details: HEK-293, 72 h, concentrations as high as 0.5 μM, FIG. 3B
Procedure: as §1

[3] = test system: CHO-K1 cells; experiment: Cellular uptake of transporter-ST-PE-Cy5 conjugates, flow cytometry (MFI); type: cell-based, Chinese hamster; details: for Uptake of ST-PE-Cy5 incubated with transporter lacking the biotin moiety: CHO-K1, 37° C., 1 h, FIG. 4
Procedure: The polymyxin derivatives (2.5 μM in PBS) were incubated with ST-PE-Cy5 (0.5 μM in PBS) for 20 min at ambient temperature then diluted with F-12 cell culture medium to give final conjugate solutions.
Cells were plated onto 24-well plates (100 000 cells/well) and grown for 24 h to about 80% confluence. Cells were washed with PBS and incubated with 300 μL of the corresponding conjugate for 1 h at 37° C. under an atmosphere of 5% CO2. Cells were washed twice with PBS, detached with 50 μL of trypsin-EDTA for uptake studies or 100 μL Versene (EDTA) for binding studies, diluted with PBS containing 0.1% BSA, and analyzed by FACS. Cellular uptake was quantified by the mean fluorescence intensity; raw data was interpreted by using FlowJo v8.8.6.
Wild type CHO-K1 cells were incubated with the carrier-ST-PE-Cy5 conjugate for 1 h at 37° C., detached with trypsin/EDTA, and analyzed by flow cytometry (see, e.g., H. O'Dowd, B. Kim, P. Margolis, W. Wang, C. Wu, S. L. Lopez and J. Blais, Tetrahedron Lett., 2007, 48, 2003-2005). […] Cellular uptake of GPMB and PMB conjugated to ST-PE-Cy5 was measured in CHO-K1, HEK-293, and HEP-3B cells. The cells were incubated with conjugate (5 nM) at 37° C. for 1 h. Mean fluorescence intensity was measured by flow cytometry. The background signal from untreated cells was subtracted (FIG. 2).
The mixtures were then added to CHO-K1 cells and incubated at 37° C. for 1 h. Mean fluorescence intensity was measured by flow cytometry and the background signal from untreated cells was subtracted.

[4] = test system: CHO-K1 cells; experiment: Cytoplasmic delivery of streptavidin-saporin, CellTiter-Blue viability; type: cell-based, Chinese hamster; details: CHO-K1, four days at 37° C., FIG. 8
Procedure: The biotinylated transporters were incubated with ST-Sap in a 5:1 molar ratio for 20 min at ambient temperature then diluted with F-12 cell culture medium to give final conjugate solutions. CHO-K1 and pgsA cells were incubated with 100 μL of the corresponding conjugate for 4 days at 37° C. under an atmosphere of 5% CO2. CellTiter-Blue (20 μL) was added to the medium and incubated for an additional 4 h to measure viability.
The ability of bPMB and bGPMB to deliver cargo to the cytosol was evaluated by conjugating the transporter to streptavidin-saporin (ST-SAP) and incubating the conjugate with CHO-K1 or pgsA cells at various concentrations. CHO-K1 cells were incubated with transporter-streptavidin-saporin conjugates at 37° C.
Saporin (no streptavidin) was incubated with bPMB or bGPMB for 20 min then diluted to final saporin concentrations and added to CHO-K1 cells. After four days, the number of viable cells was determined using CellTiter-Blue assay and the fluorescence intensity at was measured at 560/590 (FIG. 9A). pgsA cells were incubated with transporter-streptavidin-saporin conjugates at 37° C. After four days, the number of viable cells was determined using CellTiter-Blue and fluorescence intensity was measured at 560/590 (FIG. 9B).

[5] = test system: CHO-K1 cells; details: liposomes with 10 mol % carrier, 0.30, 0.50 or 0.70 μg/mL, 1 h at 37° C., FIG. 10
Procedure: A mixture (30 mg total) of DOPC, DOPE, and cholesterol (73:11:16) was dissolved in chloroform to a final volume of 1 mL and evaporated in a round flask and further dried under high vacuum overnight to form a thin lipid layer. The resulting film was hydrated for 15 min at 37° C. with 1 mL of PBS containing 100 μM Cy5. The mixture was sonicated for 30 s, subjected to six freeze/thaw cycles using a dry ice/acetone bath and a water bath at 37° C. Lastly, the suspension was extruded 17 times through a polycarbonate membrane (pore size 100 nm) at room temperature. Non-encapsulated dye was removed by gravitational gel filtration (Sephadex G-50). Lipid concentration was determined adapting the Stewart method. […] Unincorporated PMB or GPMB was removed via centrifuge gel filtration (Sephadex G-50) (see, e.g., D. W. Fry, J. C. White and I. D. Goldman, Anal. Biochem., 1978, 90, 809-815).
To examine the significance of the cyclic peptide as a delivery module, rather than the lipophilic tail, and the versatility of PMB and GPMB as transporters, liposomes containing the fluorescent Cy5 dye were mixed with 10 mol % PMB or GPMB. Uptake was evaluated using flow cytometry and the size and zeta potential of the liposomes were measured using dynamic light scattering (DLS) and are shown in Table 1 below. […]

Compound | Cytotoxicity (Cell-Titer Blue) [1] | Cytotoxicity (Cell-Titer Blue) [2] | Uptake of ST-PE-Cy5 incubated with transporter lacking the biotin moiety [3] | Delivery of cargo containing liposomes into wild-type CHO cells [5] | also measured
CC(C)C[C@@H]1NC(=O)[C@@H](Cc2ccccc2)NC(=O)[C@H](CCNC(=N)N)NC(=O)[C@@H](NC(=O)[C@H](CCNC(=N)N)NC(=O)[C@@H](NC(=O)[C@H](CCNC(=N)N)NC(=O)CCCc2cn(CCOCCOCCOCCNC(=O)CCCC[C@@H]3SC[C@@H]4NC(=O)N[C@@H]43)nn2)[C@@H](C)O)CCNC(=O)[C@H]([C@@H](C)O)NC(=O)[C@H](CCNC(=N)N)NC(=O)[C@H](CCNC(=N)N)NC1=O [bGPMB, biotinylated guanidinylated polymyxin B] (Biotin-[X1][Agb]T[Agb][Dab][Agb][dF]L[Agb][Agb]T; lactam 5-C) | no cytotoxicity | no cytotoxicity |  |  | 
CC(C)C[C@@H]1NC(=O)[C@@H](Cc2ccccc2)NC(=O)[C@H](CCN)NC(=O)[C@@H](NC(=O)[C@H](CCN)NC(=O)[C@@H](NC(=O)[C@H](CCN)NC(=O)CCCc2cn(CCOCCOCCOCCNC(=O)CCCC[C@@H]3SC[C@@H]4NC(=O)N[C@@H]43)nn2)[C@@H](C)O)CCNC(=O)[C@H]([C@@H](C)O)NC(=O)[C@H](CCN)NC(=O)[C@H](CCN)NC1=O [bPMB, biotinylated polymyxin B] (Biotin-[X1][Dab]T[Dab][Dab][Dab][dF]L[Dab][Dab]T; lactam 5-C) | no cytotoxicity | no cytotoxicity |  |  | 
Octaarginine [bArg8] |  |  |  |  | Cellular uptake of ST-PE-Cy5 conjugate compared with bPMB and bGPMB ([3]; CHO-K1, 1 h at 37° C., MFI, FIG. 1A): approximately three-fold higher uptake; LD50 of transporter-streptavidin-saporin conjugate [4]: 3.1 nM
Polymyxin B [PMB, reference compound] |  |  | No enhanced uptake | enhance delivery | 
guanidinylated polymyxin B [GPMB] |  |  | No enhanced uptake | enhance delivery | 
